Molecules are shown by their SMILES. Values joined by “and” are separate entries in the source; they are usually repeats but may differ in a detail not shown here. Equal entries are not always repeated. Records with an inconclusive call do not appear.

The assay deals with BDF1 mice, colon carcinoma 38 sc, T/C %. Nature of the assay: NCI In Vivo Anticancer Drug Screen. Data for tumor model Colon Carcinoma 38 (subcutaneous) in B6D2F1 (BDF1) mice. A digest of the protocol:
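T/C readout: treated group (T) measurement over vehicle control group (C) measurement. Endpoint is survival or tumor size in mice bearing a transplanted tumor.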

The mark [1] stands for this setting: endpoint: median tumor weight (est.), dose: 6.25 mg/kg/injection, schedule: Q07DX002 (ip), vehicle: saline with Tween-80, higher = larger tumour.
Setting [2] is: endpoint: median tumor weight (est.), dose: 12.5 mg/kg/injection, schedule: Q07DX002 (ip), vehicle: saline with Tween-80, higher = larger tumour.
The mark [3] stands for this setting: endpoint: median tumor weight (est.), dose: 50.0 mg/kg/injection, schedule: Q07DX002 (ip), vehicle: saline with Tween-80, higher = larger tumour.
Where [4] appears, read: endpoint: median tumor weight (est.), dose: 25.0 mg/kg/injection, schedule: Q07DX002 (ip), vehicle: saline with Tween-80, higher = larger tumour.
The mark [5] stands for this setting: endpoint: median tumor weight (est.), dose: 100.0 mg/kg/injection, schedule: Q07DX002 (ip), vehicle: saline with Tween-80, higher = larger tumour.
Where [6] appears, read: endpoint: median tumor weight (est.), dose: 200.0 mg/kg/injection, schedule: Q07DX002 (ip), vehicle: saline with Tween-80, higher = larger tumour.

On to `Nc1ccc(S(=O)(=O)c2ccc(N)cc2)cc1`, for which the T/C is, setting by setting: under setting [1], 154 % of control; under setting [2], 111 % of control; under setting [3], 85 % of control and 92 % of control; (endpoint: median tumor weight (est.), dose: 56.0 mg/kg/injection, schedule: Q07DX002 (ip), vehicle: saline with Tween-80, higher = larger tumour) 109 % of control; (endpoint: median tumor weight (est.), dose: 450.0 mg/kg/injection, schedule: Q07DX002 (ip), vehicle: saline with Tween-80, higher = larger tumour) 87 % of control; (endpoint: median tumor weight (est.), dose: 900.0 mg/kg/injection, schedule: Q07DX002 (ip), vehicle: saline with Tween-80, higher = larger tumour) 71 % of control.
In the case of `Cc1cc(O)c2c(c1O)C(=O)C13C(=C2O)C(=O)C2C(O)C1C1C(O)C3C(=O)C3=C(O)c4c(O)cc(C)c(O)c4C(=O)C321` (configuration not stated), the T/C under setting [1] is 68 % of control.
Regarding `O=S(=O)(N=N/C=C1\C=CC=CN1O)c1cccs1`, the T/C is, setting by setting: under setting [2], 85 % of control; under setting [4], 108 % of control and 98 % of control; under setting [3], 92 % of control and 100 % of control; under setting [5], 84 % of control and 99 % of control; (endpoint: median tumor weight (est.), dose: 400.0 mg/kg/injection, schedule: Q07DX002 (ip), vehicle: saline with Tween-80, higher = larger tumour) 67 % of control.
As to `COc1cc([C@@H]2c3cc4c(c(O)c3C[C@H]3COC(=O)[C@@H]32)OCO4)cc(OC)c1O`, the T/C by setting is: (endpoint: median tumor weight (est.), dose: 0.5 mg/kg/injection, schedule: Q07DX002 (ip), vehicle: saline, higher = larger tumour) 78 % of control; (endpoint: median tumor weight (est.), dose: 1.0 mg/kg/injection, schedule: Q07DX002 (ip), vehicle: saline, higher = larger tumour) 65 % of control; (endpoint: median tumor weight (est.), dose: 2.0 mg/kg/injection, schedule: Q07DX002 (ip), vehicle: saline, higher = larger tumour) 81 % of control; (endpoint: median tumor weight (est.), dose: 4.0 mg/kg/injection, schedule: Q07DX002 (ip), vehicle: saline, higher = larger tumour) 123 % of control.
On to `NCCOCC(N)C(=O)O` (configuration not stated), for which the T/C is, setting by setting: (endpoint: median tumor weight (est.), dose: 125.0 mg/kg/injection, schedule: Q07DX002 (ip), vehicle: saline, higher = larger tumour) 112 % of control; (endpoint: median tumor weight (est.), dose: 250.0 mg/kg/injection, schedule: Q07DX002 (ip), vehicle: saline, higher = larger tumour) 84 % of control; (endpoint: median tumor weight (est.), dose: 500.0 mg/kg/injection, schedule: Q07DX002 (ip), vehicle: saline, higher = larger tumour) 107 % of control; (endpoint: median tumor weight (est.), dose: 1000.0 mg/kg/injection, schedule: Q07DX002 (ip), vehicle: saline, higher = larger tumour) 107 % of control.
For the compound `COC(=O)Nc1cccc(-c2nc3ccc(NC(=O)OC)cc3c(=O)n2-c2ccccc2)c1`, the T/C was 78 % of control (endpoint: median tumor weight (est.), dose: 32.0 mg/kg/injection, schedule: Q07DX003 (ip), vehicle: Klucel (hydroxypropylcellulose) (HPC), higher = larger tumour); 70 % of control (endpoint: median tumor weight (est.), dose: 64.0 mg/kg/injection, schedule: Q07DX003 (ip), vehicle: Klucel (hydroxypropylcellulose) (HPC), higher = larger tumour); 87 % of control (endpoint: median tumor weight (est.), dose: 128.0 mg/kg/injection, schedule: Q07DX003 (ip), vehicle: Klucel (hydroxypropylcellulose) (HPC), higher = larger tumour); 30 % of control (endpoint: median tumor weight (est.), dose: 256.0 mg/kg/injection, schedule: Q07DX003 (ip), vehicle: Klucel (hydroxypropylcellulose) (HPC), higher = larger tumour).
As to `CC1c2ccccc2Cn2cc3c(c21)C(=O)c1cccc(OP(=O)(O)OCc2ccccc2)c1C3=O` (configuration not stated), the T/C is 62 % of control (endpoint: median tumor weight (est.), dose: 0.5 mg/kg/injection, schedule: Q01DX012 (ip), vehicle: saline with Tween-80, higher = larger tumour); 73 % of control (endpoint: median tumor weight (est.), dose: 1.0 mg/kg/injection, schedule: Q01DX012 (ip), vehicle: saline with Tween-80, higher = larger tumour); 23 % of control (endpoint: median tumor weight (est.), dose: 2.0 mg/kg/injection, schedule: Q01DX012 (ip), vehicle: saline with Tween-80, higher = larger tumour); 28 % of control (endpoint: median tumor weight (est.), dose: 4.0 mg/kg/injection, schedule: Q01DX012 (ip), vehicle: saline with Tween-80, higher = larger tumour).
For the compound `O=C1CCC(=O)N1CO`, the T/C is 112 % of control and 98 % of control (endpoint: median tumor weight (est.), dose: 50.0 mg/kg/injection, schedule: Q07DX002 (ip), vehicle: saline, higher = larger tumour); 99 % of control and 100 % of control (endpoint: median tumor weight (est.), dose: 100.0 mg/kg/injection, schedule: Q07DX002 (ip), vehicle: saline, higher = larger tumour); 76 % of control and 91 % of control (endpoint: median tumor weight (est.), dose: 200.0 mg/kg/injection, schedule: Q07DX002 (ip), vehicle: saline, higher = larger tumour); 36 % of control and 58 % of control (endpoint: median tumor weight (est.), dose: 400.0 mg/kg/injection, schedule: Q07DX002 (ip), vehicle: saline, higher = larger tumour).
As for `NC(C/[N+]([O-])=N/O)C(=O)O` (configuration not stated), the T/C reads like this: (endpoint: median survival time, dose: 52.7 mg/kg/injection, schedule: Q04DX005 (ip), vehicle: alkali diluted with saline, higher = longer survival) 109 % of control; (endpoint: median survival time, dose: 79.0 mg/kg/injection, schedule: Q04DX005 (ip), vehicle: alkali diluted with saline, higher = longer survival) 86 % of control and 88 % of control; (endpoint: median survival time, dose: 119.0 mg/kg/injection, schedule: Q04DX005 (ip), vehicle: alkali diluted with saline, higher = longer survival) 109 % of control and 116 % of control; (endpoint: median survival time, dose: 178.0 mg/kg/injection, schedule: Q04DX005 (ip), vehicle: alkali diluted with saline, higher = longer survival) 100 % of control and 102 % of control; (endpoint: median survival time, dose: 267.0 mg/kg/injection, schedule: Q04DX005 (ip), vehicle: alkali diluted with saline, higher = longer survival) 93 % of control and 94 % of control; (endpoint: median survival time, dose: 400.0 mg/kg/injection, schedule: Q04DX005 (ip), vehicle: alkali diluted with saline, higher = longer survival) 95 % of control. Further, the T/C (endpoint: median survival time, dose: 600.0 mg/kg/injection, schedule: Q04DX005 (ip), vehicle: alkali diluted with saline, higher = longer survival) is 79 % of control; the T/C (endpoint: median tumor weight (est.), dose: 32.0 mg/kg/injection, schedule: Q07DX003 (ip), vehicle: saline, higher = larger tumour) was 108 % of control; the T/C (endpoint: median tumor weight (est.), dose: 64.0 mg/kg/injection, schedule: Q07DX003 (ip), vehicle: saline, higher = larger tumour) was 70 % of control; the T/C (endpoint: median tumor weight (est.), dose: 128.0 mg/kg/injection, schedule: Q07DX003 (ip), vehicle: saline, higher = larger tumour) was 92 % of control; the T/C (endpoint: median tumor weight (est.), dose: 256.0 mg/kg/injection, schedule: Q07DX003 (ip), vehicle: saline, higher = larger tumour) is 100 % of control; the T/C (endpoint: median tumor weight (est.), dose: 512.0 mg/kg/injection, schedule: Q07DX003 (ip), vehicle: saline, higher = larger tumour) is 56 % of control. In addition, the T/C (endpoint: median tumor weight (est.), dose: 1024.0 mg/kg/injection, schedule: Q07DX003 (ip), vehicle: saline, higher = larger tumour) is 72 % of control.
`CCC[P+](c1ccccc1)(c1ccccc1)c1ccccc1`: the T/C was 114 % of control and 98 % of control (endpoint: median tumor weight (est.), dose: 3.12 mg/kg/injection, schedule: Q07DX003 (ip), vehicle: saline with Tween-80, higher = larger tumour); 96 % of control (endpoint: median tumor weight (est.), dose: 6.25 mg/kg/injection, schedule: Q07DX003 (ip), vehicle: saline with Tween-80, higher = larger tumour); 76 % of control (endpoint: median tumor weight (est.), dose: 25.0 mg/kg/injection, schedule: Q07DX003 (ip), vehicle: saline with Tween-80, higher = larger tumour); 73 % of control (endpoint: median tumor weight (est.), dose: 50.0 mg/kg/injection, schedule: Q07DX003 (ip), vehicle: saline with Tween-80, higher = larger tumour).
Turning to `C=C(NC(=O)C(=C)NC(=O)c1csc(C2=NC3c4csc(n4)C4NC(=O)c5csc(n5)C(C(C)(O)C(C)O)NC(=O)C5CSC(=N5)/C(=C/C)NC(=O)C(C(C)O)NC(=O)c5csc(n5)C3(CC2)NC(=O)C(C)NC(=O)C(=C)NC(=O)C(=C)NC(=O)C(C(C)C)NC2C=Cc3c(C(C)O)cc(nc3C2O)C(=O)OC4C)n1)C(N)=O` (configuration not stated), the T/C runs as follows: (endpoint: median tumor weight (est.), dose: 12.5 mg/kg/injection, schedule: Q07DX002 (ip), vehicle: suspension in saline, higher = larger tumour) 95 % of control; (endpoint: median tumor weight (est.), dose: 25.0 mg/kg/injection, schedule: Q07DX002 (ip), vehicle: suspension in saline, higher = larger tumour) 98 % of control; (endpoint: median tumor weight (est.), dose: 50.0 mg/kg/injection, schedule: Q07DX002 (ip), vehicle: suspension in saline, higher = larger tumour) 111 % of control; (endpoint: median tumor weight (est.), dose: 100.0 mg/kg/injection, schedule: Q07DX002 (ip), vehicle: suspension in saline, higher = larger tumour) 72 % of control; (endpoint: median tumor weight (est.), dose: 200.0 mg/kg/injection, schedule: Q07DX002 (ip), vehicle: suspension in saline, higher = larger tumour) 75 % of control; (endpoint: median tumor weight (est.), dose: 400.0 mg/kg/injection, schedule: Q07DX002 (ip), vehicle: suspension in saline, higher = larger tumour) 86 % of control.
`CN(C)P(=O)(Oc1ccccc1)N(C)C`: the T/C under setting [3] is 68 % of control, the T/C under setting [5] is 62 % of control and the T/C under setting [6] was 86 % of control.
In the case of `CCCCc1ccc2nc(NC(=O)OC)[nH]c2c1`, the T/C under setting [2] was 114 % of control, the T/C under setting [4] is 83 % of control, the T/C under setting [3] was 98 % of control and the T/C under setting [6] was 87 % of control.
As to `Oc1c(Cl)cc(Cl)cc1C1N2CCCCC2C2c3cccn3-c3ccccc3N21` (configuration not stated), the T/C is, setting by setting: (endpoint: median tumor weight (est.), dose: 25.0 mg/kg/injection, schedule: Q07DX002 (ip), vehicle: Klucel (hydroxypropylcellulose) (HPC), higher = larger tumour) 82 % of control; (endpoint: median tumor weight (est.), dose: 50.0 mg/kg/injection, schedule: Q07DX002 (ip), vehicle: Klucel (hydroxypropylcellulose) (HPC), higher = larger tumour) 102 % of control; (endpoint: median tumor weight (est.), dose: 100.0 mg/kg/injection, schedule: Q07DX002 (ip), vehicle: Klucel (hydroxypropylcellulose) (HPC), higher = larger tumour) 69 % of control; (endpoint: median tumor weight (est.), dose: 200.0 mg/kg/injection, schedule: Q07DX002 (ip), vehicle: Klucel (hydroxypropylcellulose) (HPC), higher = larger tumour) 104 % of control; (endpoint: median tumor weight (est.), dose: 400.0 mg/kg/injection, schedule: Q07DX002 (ip), vehicle: Klucel (hydroxypropylcellulose) (HPC), higher = larger tumour) 67 % of control.
